# Source: patent publication EP0193189A1, “Novel compound, its production and insecticidal and acaricidal composition containing it as an active ingredient” (SUMITOMO CHEMICAL COMPANY, LIMITED, priority 1985, dated 1986)
# Read-outs that look alike come from different tables or passages of the source.
# Experiments:
# [1] = test system: brown rice planthoppers (Nila^parvata luqens); assay: Test Example 7: spray on potted rice plants, brown rice planthopper, residual effect; type: in vivo; conditions: 20 h
# Method: The emulsifiable concentrates of the following compounds and control compounds obtained according to Formulation example 2 were each diluted with water one thousand times (corresponding to 100 ppm) and each of thus prepared solutions was sprayed at the rate of 20 ml/2 pots to the rice plant seedlings planted in Wagner pots having a surface area of one ten thousandth are. After air-drying, the treated plants were covered with the iron wire cages, and about 15 adults of brown rice planthoppers (Nila^parvata luqens) were liberated thereto. Further, about 15 adults thereof were also liberated thereto 4 days after the application to examine the residual effects. Twenty hours after each liberation, the dead and alive adults were examined to calculate the mortality.
# [2] = test system: common mosquito (Culex pipiens pallens); assay: Test Example 1: common mosquito larvae in diluted emulsifiable concentrate, mortality and emergence inhibition; type: in vivo; conditions: Culex pipiens; for mortality at 3.5 ppm: 24 h; for pest or weed control at 3.5 ppm: counted when all pupae of no treatment group had emerged, read-out: Inhibitory ratio of emergence
# Method: The emulsifiable concentrates of the following present compounds obtained according to Formulation example 2 were each diluted with water so as to obtain respective aqueous solutions containing 3.5 ppm of said compounds, respectively. One hundred ml of thus diluted aqueous solutions were poured into respective polyethylene cups of 180 ml volume, and 20 of the last instar larvae of common mosquito (Culex pipiens pallens) were liberated thereto. After one day, the dead or alive of the larvae were examined.
# Thereafter, the feed was added to respective cups and the number of emerged pupae of the respective cups was counted when all the pupae of no treatment group had emerged to calculate the inhibitory ratios of the emergence.
# The mortality and the inhibitory ratio of the emergence are shown according to the following three criteria: • mortality: A; 90% or more, • B; less than 90% to 10%, • C; less than 10%. • inhibitory: A; 90% or more, ratio of • emergence B; less than 90% to 80% • C; less than 80%.
# [3] = test system: tobacco cutworms (Spodoptera litura); assay: Test Example 2: tobacco cutworm larvae on treated artificial feed; type: in vivo; conditions: Spodoptera litura, 144 h
# Text: The emulsifiable concentrates of the following present compounds obtained according to Formulation example 2 were each diluted with water to obtain respective 667 times dilution aqueous solutions (corresponding to 150 ppm) containing said compounds, respectively. Two ml of thus diluted solutions were impregnated into the artificial feeds (13 g) for tobacco cutworms (Spodoptera litura) and thus prepared feeds were placed in polyethylene cups of 11 cm in diameter, respectively. Ten of the 4th instar larvae were liberated thereon.
# Six days after, the dead and alive of the larvae were examined to calculate the mortality (two replications).
# [4] = test system: carmine spider mite (Tetranychus cinnabarinus); assay: Test Example 8: carmine spider mite on potted kidney bean, degree of damage; type: in vivo; parameters: key: -: No damage is observed.; +: Slight damage is observed.; ++: The same damage as in the untreated plot is observed; conditions: 500 ppm spray 10 ml/pot plus 2 ml soil treatment; after 8 days
# Method: The female adults of carmine spider mite (Tetranychus cinnabarinus) were put at a rate of 10 adults/leaf on the leaves of potted kidney bean (at the primordial leaf stage) which had elapsed 7 days after sowing, and placed in a constant-temperature room kept at 25°C. After 6 days, the 200-fold aqueous dilute solutions (corresponding to 500 ppm), prepared from the emulsifiable concentrates of the following present compounds and control compounds prepared according to Formulation example 2, were each sprayed at a rate of 10 ml/pot on a turn table. At the same time, the soil in the pot was treated with 2 ml of each aqueous solution. After 8 days, the degree of damage of the plant by the mite was examined.
# Criteria of the effect: • - : No damage is observed. • + : Slight damage is observed. • ++: The same damage as in the untreated plot is observed.
# [5] = test system: brown rice planthopper (Nila^parvata luqens); assay: Test Example 4: rice seedling dip test, brown rice planthopper; type: in vivo; conditions: 24 h, read-out: LC50 value (ppm)
# Method: (§1) The emulsifiable concentrates of the-following present compounds and control compounds obtained according to Formulation example 2 were each diluted with water to a prescribed concentration, and the rice seedlings (about 12 cm in length) were dipped for 1 minute in the resulting aqueous dilute solutions. After air-drying, the seedlings were placed in a test tube, and 10 adults of brown rice planthopper (Nila^parvata luqens) were liberated in the tube. After one day, the dead and alive of the adults were examined to obtain LC50 value (50% lethal concentration)(two replications).
# [6] = test system: rice stem borer (Chilo suppressalis); assay: Test Example 5: rice stem borer larvae on treated artificial feed; type: in vivo; conditions: read-out: LC50 value (ppm)
# Text: The emulsifiable concentrates of the following present compounds and control compounds obtained according to Formulation example 2 were each diluted with water to a prescribed concentration, and one ml each of thus prepared solutions was impregnated into the artificial feeds for rice stem borer (Chilo suppressalis) which had been previously prepared in polyethylene cups of 5.5 cm in diameter, respectively. Ten of the larvae of the 10 days old were liberated thereon. The dead and alive larvae were examined to obtain LC50 value (50% lethal concentration) (two replications).
# [7] = Test Example 9: fish toxicity test; type: in vivo, Cyprinida carpio; conditions: water; young carp; forty-eight hours; 25 ± 1°C; Probit method; read-out: LC50 value (ppm)
# Method: Twenty liters of each of the aqueous solutions containing the prescribed concentrations of the present compounds and comparative control one, and 10 young carp were liberated thereto. Forty-eight hours after, the dead and alive carp were examined to obtain LC50 value, (50% lethal concentration) according to Probit method. All the tests were carried out in thermostatic aquaria whose temperatures were kept at 25 ± 1°C.
# Tested fish: young Japanese carp (Cyprinida carpio) Average body length ± S.D.: 2.94 ± 0.19 cm. Average.body weight ± S.D.: 0.65 ± 0.13 g.
# [8] = test system: resistant strain of green rice leafhopper (Nephotetix cincticeps); assay: Test Example 3: rice seedling dip test, resistant green rice leafhopper; type: in vivo; conditions: Nephotettix cincticeps, 24 h, adults of resistant strain, after one day
# Method: as §1, with “the following” for “the-following”, “and” for “and the”, “in” for “in a”, “a resistant strain of green” for “brown”, “leafhopper (Nephotetix cincticeps)” for “planthopper (Nila^parvata luqens)”, “LC50” for “LC50 value”
# [9] = test system: houseflies (Musca domestica) of WHO strains; assay: Test Example 6: housefly filter paper and sucrose bait test; type: in vivo; conditions: 0.7 ml on filter paper with sucrose bait, adult females, after 48 hours, read-out: LC50 value (ppm)
# Method: On the bottom of a polyethylene cup of 5.5 cm- in diameter was placed a piece of filter paper of the same size as the bottom, and 0.7 ml of a test solution, prepared by diluting the emulsifiable concentrates of the following present compounds and control compounds prepared according to Formulation example 2 to a prescribed concentration with water, was added dropwise to the filter paper. Thirty milligrams of sucrose were uniformly placed on the filter paper as bait. Thereafter, 10 adult female houseflies (Musca domestica) of WHO strains were liberated in the cup, which was then covered with a lid. After 48 hours, the dead and alive were examined to obtain LC50 value (50% lethal concentration) (two replications).
# [10] = 100 ppm spray, 20 ml/2 pots, residual effect, twenty hours after liberation, read-out: Mortality (%) liberated 4 days after application
# [11] = 100 ppm spray, 20 ml/2 pots, twenty hours after liberation, read-out: Mortality (%) liberated just after air-drying
# [12] = 3.5 ppm, 20 last instar larvae, after one day, read-out: Mortality
# [13] = 150 ppm solution, 2 ml in 13 g artificial feed, 4th instar larvae, six days after, read-out: Mortality (%)
# [14] = read-out: Mortality (%) liberated 4 days after application
# [15] = read-out: Mortality (%) liberated just after air-drying
# [16] = read-out: LC50 value (ppm), rice seedlings dipped 1 minute
# [17] = rice seedlings dipped 1 minute, adults, after one day
# [18] = 1 ml solution in artificial feed, larvae 10 days old
# [19] = rice seedlings dipped 1 minute, read-out: LC50 value (ppm)
SMILES,"mortality at 3.5 ppm [2, 12]",pest or weed control at 3.5 ppm ([2]; 3.5 ppm),"mortality at 150 ppm [3, 13]",Degree of damage [4],"LC50 [6, 18]","LC50 [8, 19]",LC50 [9],other results
"C=CC(C)(CCCc1cccc(Oc2ccccc2)c1)c1ccc(OCC)cc1 (stereo not drawn) [(1), 3-(4-ethoxyphenyl)-3-methyl-6-(3-phenoxyphenyl)-l-hexene]",> 90%,> 90%,100%,- ~ +,,,,"mortality at 100 ppm [1, 10]: 100%; mortality at 100 ppm [1, 11]: 100%"
"C#CC(C)(CCCc1cccc(Oc2ccccc2)c1)c1ccc(OCC)cc1 (stereo not drawn) [(3), 3-(4-ethoxyphenyl)-3-methyl-6-(3-phenoxyphenyl)-1-hexyne]",,> 90%,,-,,,,"LC50 [5]: 34 µg/mL; LC50 [6]: 3.6 µg/mL; mortality at 100 ppm [1, 14]: 95%; mortality at 100 ppm [1, 15]: 100%; mortality at 3.5 ppm [2]: > 90%; mortality at 150 ppm [3]: 100%; LC50 at 48 h [7]: > 10 µg/mL; LC50 [8, 16]: 18 µg/mL"
C#CC(C)(CCCc1ccc(F)c(Oc2ccccc2)c1)c1ccc(OCC)cc1 (stereo not drawn) [(4)],> 90%,> 90%,100%,,1.9 µg/mL,10 µg/mL,18 µg/mL,"LC50 [5, 17]: 24 µg/mL; mortality at 100 ppm [1, 10]: 100%; mortality at 100 ppm [1, 11]: 100%; LC50 at 48 h [7]: > 10 µg/mL"
C#CC(C)(CCCc1ccc(F)c(Oc2ccccc2)c1)c1ccc(OC(F)F)cc1 (stereo not drawn) [(6)],> 90%,> 90%,100%,,1.9 µg/mL,36 µg/mL,15 µg/mL,
"C#CC(C)(CCCc1cccc(Oc2ccccc2)c1)c1ccc(OCC=C)cc1 (stereo not drawn) [(7), 3-(4-allyloxyphenyl)-3-methyl-6-(3-phenoxyphenyl)-1-hexyne]",,> 90%,,-,,,,"mortality at 100 ppm [1, 14]: 93%; mortality at 100 ppm [1, 15]: 100%; mortality at 3.5 ppm [2]: 10 to 90%; mortality at 150 ppm [3]: 100%"
C#CC(C)(CCCc1ccc(F)c(Oc2ccccc2)c1)c1ccc(F)cc1 (stereo not drawn) [(9)],> 90%,> 90%,100%,,4.2 µg/mL,49 µg/mL,,
C#CC(C)(CCCc1ccc(F)c(Oc2ccccc2)c1)c1ccc(OCC)c(Cl)c1 (stereo not drawn) [(11)],> 90%,> 90%,100%,,2.3 µg/mL,49 µg/mL,12 µg/mL,
"C#CC(C)(CCCc1cccc(Oc2ccccc2)c1)c1ccc(OC(F)F)cc1 (stereo not drawn) [(17), 3-(4-difluoromethoxyphenyl)-3-methyl-6-(3-phenoxyphenyl)-l-hexyne]",> 90%,> 90%,100%,,3.6 µg/mL,68 µg/mL,,
C#CC(C)(CCCc1ccc(F)c(Oc2ccccc2)n1)c1ccc(OCC)cc1 (stereo not drawn) [(20)],> 90%,> 90%,100%,- ~ +,,74 µg/mL,,"LC50 [5, 17]: 25 µg/mL"
C#CC(C)(CCCc1ccc(F)c(Nc2ccccc2)c1)c1ccc(OCC)cc1 (stereo not drawn) [(21)],> 90%,> 90%,100%,,1.5 µg/mL,24 µg/mL,,"LC50 [5, 17]: 15 µg/mL"
C#CC(C)(CCCc1ccc(F)c(Oc2ccc(Cl)cc2)c1)c1ccc(OCC)cc1 (stereo not drawn) [(34)],> 90%,> 90%,100%,,4.2 µg/mL,18 µg/mL,,
C#CC(C)(CCCc1ccc(F)c(Oc2ccccc2)c1)c1ccc(CC)cc1 (stereo not drawn) [(39)],> 90%,> 90%,100%,- ~ +,,21 µg/mL,17 µg/mL,
C#CC(CCCc1ccc(F)c(Oc2ccccc2)c1)c1ccc(OCC)cc1 (stereo not drawn) [(43)],> 90%,> 90%,100%,- ~ +,,74 µg/mL,,
"CCOc1ccc(C(C)(C)COCc2cccc(Oc3ccccc3)c2)cc1 [(B), reference compound]",,,,- ~ ++,7.4 µg/mL,,28 µg/mL,"LC50 [5, 17]: 110 µg/mL; mortality at 100 ppm [1, 10]: 65%; mortality at 100 ppm [1, 11]: 10%"
"CCOC(=O)CC(SP(=S)(OC)OC)C(=O)OCC (stereo not drawn) [(D), Malathion, reference compound]",,,,,,,,"LC50 at 48 h [7]: 4.5 µg/mL; LC50 [8, 16]: ~500 µg/mL"
